What was measured:
Type in all cases: functional
[1] = Growth inhibition of human HCC2998 cells assessed as cell growth at 5X10'-9 M after 48 hrs by sulforhodamine B assay; conditions: HCC 2998, 48 h, read-out: Activity
SNB-19 = experiment: Growth inhibition of human SNB19 cells assessed as cell growth at 5X10'-5 M after 48 hrs by sulforhodamine B assay; conditions: SNB-19, 48 h, read-out: Activity
[2] = Growth inhibition of human HCC2998 cells assessed as cell growth at 5X10'-5 M after 48 hrs by sulforhodamine B assay; conditions: HCC 2998, 48 h, read-out: Activity
HOP-92 = experiment: Growth inhibition of human HOP92 cells assessed as cell growth at 5X10'-5 M after 48 hrs by sulforhodamine B assay; conditions: HOP-92, 48 h, read-out: Activity
K562 = experiment: Growth inhibition of human K562 cells assessed as cell growth at 5X10'-5 M after 48 hrs by sulforhodamine B assay; conditions: K562, 48 h, read-out: Activity
CCRF-CEM [3] = experiment: Growth inhibition of human CCRF-CEM cells assessed as cell growth at 5X10'-5 M after 48 hrs by sulforhodamine B assay; conditions: read-out: Activity
BT-549 = experiment: Growth inhibition of human BT549 cells assessed as cell growth at 5X10'-6 M after 48 hrs by sulforhodamine B assay; conditions: BT-549, 48 h, read-out: Activity
PC-3 = experiment: Growth inhibition of human PC3 cells assessed as cell growth at 5X10'-6 M after 48 hrs by sulforhodamine B assay; conditions: PC-3, 48 h, read-out: Activity
SN12C = experiment: Growth inhibition of human SN12C cells assessed as cell growth at 5X10'-6 M after 48 hrs by sulforhodamine B assay; conditions: read-out: Activity
OVCAR-8 = experiment: Growth inhibition of human OVCAR8 cells assessed as cell growth at 5X10'-6 M after 48 hrs by sulforhodamine B assay; conditions: OVCAR-8, 48 h, read-out: Activity
UACC-257 = experiment: Growth inhibition of human UACC257 cells assessed as cell growth at 5X10'-6 M after 48 hrs by sulforhodamine B assay; conditions: UACC-257, 48 h, read-out: Activity
RPMI-8226 = experiment: Growth inhibition of human RPMI8226 cells assessed as cell growth at 5X10'-9 M after 48 hrs by sulforhodamine B assay; conditions: RPMI-8226, 48 h, read-out: Activity
SF-268 [4] = experiment: Growth inhibition of human SF268 cells assessed as cell growth at 5X10'-6 M after 48 hrs by sulforhodamine B assay; conditions: SF-268, 48 h, read-out: Activity
[5] = Growth inhibition of human Hs 578T cells assessed as cell growth at 5X10'-7 M after 48 hrs by sulforhodamine B assay; conditions: read-out: Activity
TK-10 = experiment: Growth inhibition of human TK10 cells assessed as cell growth at 5X10'-7 M after 48 hrs by sulforhodamine B assay; conditions: TK-10, 48 h, read-out: Activity
OVCAR-4 = experiment: Growth inhibition of human OVCAR4 cells assessed as cell growth at 5X10'-7 M after 48 hrs by sulforhodamine B assay; conditions: OVCAR-4, 48 h, read-out: Activity
SF-268 [6] = experiment: Growth inhibition of human SF268 cells assessed as cell growth at 5X10'-7 M after 48 hrs by sulforhodamine B assay; conditions: SF-268, 48 h, read-out: Activity
[7] = Growth inhibition of human HCC2998 cells assessed as cell growth at 5X10'-7 M after 48 hrs by sulforhodamine B assay; conditions: HCC 2998, 48 h, read-out: Activity
COLO 205 [8] = experiment: Growth inhibition of human COLO205 cells assessed as cell growth at 5X10'-7 M after 48 hrs by sulforhodamine B assay; conditions: COLO 205, 48 h, read-out: Activity
SR = experiment: Growth inhibition of human SR cells assessed as cell growth at 5X10'-7 M after 48 hrs by sulforhodamine B assay; conditions: read-out: Activity
CCRF-CEM [9] = experiment: Growth inhibition of human CCRF-CEM cells assessed as cell growth at 5X10'-7 M after 48 hrs by sulforhodamine B assay; conditions: read-out: Activity
MDA-MB-468 = experiment: Growth inhibition of human MDA-MB-468 cells assessed as cell growth at 5X10'-8 M after 48 hrs by sulforhodamine B assay; conditions: MDA-MB-468, 48 h, read-out: Activity
A498 = experiment: Growth inhibition of human A498 cells assessed as cell growth at 5X10'-8 M after 48 hrs by sulforhodamine B assay; conditions: A498, 48 h, read-out: Activity
SK-MEL-5 = experiment: Growth inhibition of human SK-MEL-5 cells assessed as cell growth at 5X10'-8 M after 48 hrs by sulforhodamine B assay; conditions: SK-MEL-5, 48 h, read-out: Activity
MDA-MB-435 = experiment: Growth inhibition of human MDA-MB-435 cells assessed as cell growth at 5X10'-8 M after 48 hrs by sulforhodamine B assay; conditions: MDA-MB-435, 48 h, read-out: Activity
SNB-75 = experiment: Growth inhibition of human SNB75 cells assessed as cell growth at 5X10'-8 M after 48 hrs by sulforhodamine B assay; conditions: SNB-75, 48 h, read-out: Activity
SF-295 = experiment: Growth inhibition of human SF295 cells assessed as cell growth at 5X10'-8 M after 48 hrs by sulforhodamine B assay; conditions: SF-295, 48 h, read-out: Activity
RXF 393 = experiment: Growth inhibition of human RXF393 cells assessed as cell growth at 5X10'-5 M after 48 hrs by sulforhodamine B assay; conditions: RXF 393, 48 h, read-out: Activity
CAKI-1 [10] = experiment: Growth inhibition of human CAKI-1 cells assessed as cell growth at 5X10'-5 M after 48 hrs by sulforhodamine B assay; conditions: CAKI-1, 48 h, read-out: Activity
OVCAR-5 = experiment: Growth inhibition of human OVCAR5 cells assessed as cell growth at 5X10'-5 M after 48 hrs by sulforhodamine B assay; conditions: OVCAR-5, 48 h, read-out: Activity
IGROV-1 = experiment: Growth inhibition of human IGROV1 cells assessed as cell growth at 5X10'-5 M after 48 hrs by sulforhodamine B assay; conditions: IGROV-1, 48 h, read-out: Activity
COLO 205 [11] = experiment: Growth inhibition of human COLO205 cells assessed as cell growth at 5X10'-8 M after 48 hrs by sulforhodamine B assay; conditions: COLO 205, 48 h, read-out: Activity
NCI-H226 = experiment: Growth inhibition of human NCI-H226 cells assessed as cell growth at 5X10'-8 M after 48 hrs by sulforhodamine B assay; conditions: NCI-H226, 48 h, read-out: Activity
CAKI-1 [12] = experiment: Growth inhibition of human CAKI-1 cells assessed as cell growth at 5X10'-9 M after 48 hrs by sulforhodamine B assay; conditions: CAKI-1, 48 h, read-out: Activity
M14 = experiment: Growth inhibition of human M14 cells assessed as cell growth at 5X10'-9 M after 48 hrs by sulforhodamine B assay; conditions: M14, 48 h, read-out: Activity
SF-539 = experiment: Growth inhibition of human SF539 cells assessed as cell growth at 5X10'-9 M after 48 hrs by sulforhodamine B assay; conditions: SF-539, 48 h, read-out: Activity

SMILES | growth at 0.005 µM [1] [%] | growth at 50 µM (SNB-19) [%] | growth at 50 µM [2] [%] | growth at 50 µM (HOP-92) [%] | growth at 50 µM (K562) [%] | growth at 50 µM (CCRF-CEM [3]) [%] | growth at 5 µM (BT-549) [%] | growth at 5 µM (PC-3) [%] | growth at 5 µM (SN12C) [%] | growth at 5 µM (OVCAR-8) [%] | growth at 5 µM (UACC-257) [%] | growth at 0.005 µM (RPMI-8226) [%] | growth at 5 µM (SF-268 [4]) [%] | growth at 0.5 µM [5] [%] | growth at 0.5 µM (TK-10) [%] | growth at 0.5 µM (OVCAR-4) [%] | growth at 0.5 µM (SF-268 [6]) [%] | growth at 0.5 µM [7] [%] | growth at 0.5 µM (COLO 205 [8]) [%] | growth at 0.5 µM (SR) [%] | also measured
COc1cc(-c2nn(-c3cccc(NC(=O)c4cccc(C(F)(F)F)c4)c3)cc2-c2ccncc2)ccc1Cl | 92 | 28 | -17 | -22 | 7 | 4 | 34 | 17 | 41 | 23 | 56 | 98 | 28 | 74 | 108 | 81 | 88 | 105 | 102 | 65 | growth at 0.5 µM (CCRF-CEM [9]): 88%; growth at 0.05 µM (MDA-MB-468): 90%; growth at 0.05 µM (A498): 80%; growth at 0.05 µM (SK-MEL-5): 97%; growth at 0.05 µM (MDA-MB-435): 100%; growth at 0.05 µM (SNB-75): 89%; growth at 0.05 µM (SF-295): 95%; growth at 50 µM (RXF 393): -2%; growth at 50 µM (CAKI-1 [10]): 17%; growth at 50 µM (OVCAR-5): 31%; growth at 50 µM (IGROV-1): 5%; growth at 0.05 µM (COLO 205 [11]): 101%; growth at 0.05 µM (NCI-H226): 93%; growth at 0.005 µM (CAKI-1 [12]): 94%; growth at 0.005 µM (M14): 95%; growth at 0.005 µM (SF-539): 95%
O=C(Nc1cccc(-n2cc(-c3ccncc3)c(-c3ccc(Cl)c(O)c3)n2)c1)Nc1cc(C(F)(F)F)cc(C(F)(F)F)c1 | 99 | -47 | -90 | -89 | -26 | -18 | -65 | -3 | 2 | 4 | -35 | 97 | -27 | 82 | 75 | 65 | 73 | 92 | 93 | 72 | growth at 0.5 µM (CCRF-CEM [9]): 62%; growth at 0.05 µM (MDA-MB-468): 85%; growth at 0.05 µM (A498): 86%; growth at 0.05 µM (SK-MEL-5): 92%; growth at 0.05 µM (MDA-MB-435): 96%; growth at 0.05 µM (SNB-75): 86%; growth at 0.05 µM (SF-295): 90%; growth at 50 µM (RXF 393): -79%; growth at 50 µM (CAKI-1 [10]): -67%; growth at 50 µM (OVCAR-5): -89%; growth at 50 µM (IGROV-1): -55%; growth at 0.05 µM (COLO 205 [11]): 103%; growth at 0.05 µM (NCI-H226): 85%; growth at 0.005 µM (CAKI-1 [12]): 97%; growth at 0.005 µM (M14): 104%; growth at 0.005 µM (SF-539): 98%
O=C(Nc1cccc(-n2cc(-c3ccncc3)c(-c3ccc(Cl)c(O)c3)n2)c1)c1ccc(N2CCOCC2)c(C(F)(F)F)c1 | 95 | 16 | 4 | -15 | 3 | 14 | 70 | 29 | 70 | 41 | 57 | 98 | 51 | 84 | 97 | 112 | 104 | 108 | 111 | 84 | growth at 0.5 µM (CCRF-CEM [9]): 81%; growth at 0.05 µM (MDA-MB-468): 93%; growth at 0.05 µM (A498): 83%; growth at 0.05 µM (SK-MEL-5): 93%; growth at 0.05 µM (MDA-MB-435): 93%; growth at 0.05 µM (SNB-75): 88%; growth at 0.05 µM (SF-295): 98%; growth at 50 µM (RXF 393): -37%; growth at 50 µM (CAKI-1 [10]): -15%; growth at 50 µM (OVCAR-5): 71%; growth at 50 µM (IGROV-1): 4%; growth at 0.05 µM (COLO 205 [11]): 102%; growth at 0.05 µM (NCI-H226): 95%; growth at 0.005 µM (CAKI-1 [12]): 93%; growth at 0.005 µM (M14): 96%; growth at 0.005 µM (SF-539): 92%

— ChEMBL document CHEMBL2440076, “New triarylpyrazoles as broad-spectrum anticancer agents: design, synthesis, and biological evaluation” (Eur J Med Chem, 2013)
